# Data reported in US7834030B2, “Phenyl-[1,2,4]-oxadiazol-5-one derivatives, pharmaceutical compositions and therapeutic use thereof” (Sanofi-Aventis, priority 2005, dated 2010).
# Biological target: T1, human PPARalpha (Homo sapiens, UniProt Q07869)
# T1 construct: human PPARalpha receptor (amino acids S167-Y468); expressed in transfected cells; plasmid pcDNA3
# T1 sequence (Q07869 167-468): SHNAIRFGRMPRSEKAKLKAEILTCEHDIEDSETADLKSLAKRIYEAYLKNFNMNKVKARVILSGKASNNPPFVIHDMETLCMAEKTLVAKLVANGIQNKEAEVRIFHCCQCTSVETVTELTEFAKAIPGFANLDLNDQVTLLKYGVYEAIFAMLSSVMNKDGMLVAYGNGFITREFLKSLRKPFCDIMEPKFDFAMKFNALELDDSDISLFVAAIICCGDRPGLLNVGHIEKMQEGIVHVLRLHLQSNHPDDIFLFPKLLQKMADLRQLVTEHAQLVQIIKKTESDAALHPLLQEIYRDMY
# Assay: cellular PPARalpha assay (GAL4 luciferase reporter, stably transfected HEK cell line)
# Assay type: cell-based
# Protocol: The activity of the compounds was tested through the determination of EC50 values of PPAR agonists in the cellular PPARalpha assay. The potency of substances which bind to human PPARalpha and activate it in an agonistic manner was analyzed using a stably transfected HEK cell line (HEK=human embryo kidney) which is referred to here as PPARalpha reporter cell line. It contains two genetic elements, a luciferase reporter element (pdeltaM-GAL4-Luc-Zeo) and a PPARalpha fusion protein (GR-GAL4-humanPPARalpha-LBD) which mediates expression of the luciferase reporter element depending on a PPARalpha ligand. The stably and constitutively expressed fusion protein GR-GAL4-humanPPARalpha-LBD binds in the cell nucleus of the PPARalpha reporter cell line via the GAL4 protein portion to the GAL4 DNA binding motifs 5′-upstream of the luciferase reporter element which is stably integrated in the genome of the cell line. There is only weak expression of the luciferase reporter gene in the absence of a PPARalpha ligand if fatty acid-depleted fetal calf serum (cs-FCS) is used in the assay. PPARalpha ligands bind and activate the PPARalpha fusion protein and thereby stimulate the expression of the luciferase reporter gene. The luciferase which is formed can be detected by means of chemiluminescence via an appropriate substrate.
# The PPARalpha reporter cell line was prepared in two stages. Firstly, the luciferase reporter element was constructed and stably transfected into HEK cells. For this purpose, five binding sites of the yeast transcription factor GAL4 (Accession # AF264724) were cloned in 5′-upstream of a 68 bp-long minimal MMTV promoter (Accession # V01175). The minimal MMTV promoter section contains a CCAAT box and a TATA element in order to enable efficient transcription by RNA polymerase II. The cloning and sequencing of the GAL4-MMTV construct took place in analogy to the description of Sambrook J. et. al. (Molecular cloning, Cold Spring Harbor Laboratory Press, 1989). Then the complete Photinus pyralis gene (Accession # M15077) was cloned in 3′-downstream of the GAL4-MMTV element. After sequencing, the luciferase reporter element consisting of five GAL4 binding sites, MMTV promoter and luciferase gene was recloned into a plasmid which confers zeocin resistance in order to obtain the plasmid pdeltaM-GAL4-Luc-Zeo. This vector was transfected into HEK cells in accordance with the statements in Ausubel, F. M. et al. (Current protocols in molecular biology, Vol. 1-3, John Wiley & Sons, Inc., 1995).
# In a second step, the PPARalpha fusion protein (GR-GAL4-humanPPARalpha-LBD was introduced into the stable cell clone described. For this purpose, initially the cDNA coding for the N-terminal 76 amino acids of the glucocorticoid receptor (Accession # P04150) was linked to the cDNA section coding for amino acids 1-147 of the yeast transcription factor GAL4 (Accession # P04386). The cDNA of the ligand-binding domain of the human PPARalpha receptor (amino acids S167-Y468; Accession # S74349) was cloned in at the 3′-end of this GR-GAL4 construct. The fusion construct prepared in this way (GR-GAL4-humanPPARalpha-LBD) was recloned into the plasmid pcDNA3 (Invitrogen) in order to enable constitutive expression therein by the cytomegalovirus promoter. This plasmid was linearized with a restriction endonuclease and stably transfected into the previously described cell clone containing the luciferase reporter element. The finished PPARalpha reporter cell line which contains a luciferase reporter element and constitutively expresses the PPARalpha fusion protein (GR-GAL4-human PPARalpha-LBD) was isolated by selection with zeocin (0.5 mg/ml) and G418 (0.5 mg/ml).
# The activity of PPARalpha agonists was determined in a 3-day assay, which is described below: […]
row,Compound,EC50 [µM]
1,"CC[C@@H](Oc1cc(OC)c(-c2noc(=O)[nH]2)cc1F)c1sc(-c2ccc(C(F)(F)F)cc2)nc1C [(+)-40, (+)-3-(5-Fluoro-2-methoxy-4-{(R)-1-[4-methyl-2-(4-trifluoromethyl-phenyl)-thiazol-5-yl]-propoxy}-phenyl)-4H-1,2,4-oxadiazol-5-one]",0.677
2,"CC[C@@H](Oc1ccc(-c2noc(=O)[nH]2)c(OC(F)F)c1)c1sc(-c2ccc(C(F)(F)F)cc2)nc1CN1CCC(C(F)(F)F)CC1 [(+)-45, (+)-3-(2-Difluoromethoxy-4-{(R)-1-[2-(4-trifluoromethyl-phenyl)-4-(4-trifluoromethyl-piperidin-1-ylmethyl)-thiazol-5-yl]-propoxy}-phenyl)-4H-1,2,4-oxadiazol-5-one]",1.23
3,"Cc1nc(-c2ccc(C(F)(F)F)cc2)sc1C(Cc1ccccn1)Oc1ccc(-c2noc(=O)[nH]2)c(Cl)c1 (racemic) [Example 10, 3-(2-Chloro-4-{1-[4-methyl-2-(4-trifluoromethyl-phenyl)-thiazol-5-yl]-2-pyridin-2-yl-ethoxy}-phenyl)-4H-[1,2,4]oxadiazol-5-one]",4.38
4,"CCC(Oc1ccc(-c2noc(=O)[nH]2)c(C2CC2)c1)c1sc(-c2ccc(C(F)(F)F)cc2)nc1C (racemic) [Example 16, 3-(2-Cyclopropyl-4-{1-[4-methyl-2-(4-trifluoromethyl-Phenyl)-thiazol-5-yl]-propoxy}-phenyl)-4H-[1,2,4]oxadiazol-5-one]",0.117
5,"Cc1nc(-c2ccc(C(F)(F)F)cc2)sc1C(Oc1ccc(-c2noc(=O)[nH]2)c(Cl)c1)C(F)(F)F (racemic) [Example 20, 3-(2-Chloro-4-{2,2,2-trifluoro-1-[4-methyl-2-(4-trifluoromethyl-phenyl)-thiazol-5-yl]-ethoxy}-phenyl)-4H-[1,2,4]oxadiazol-5-one]",0.307
6,"Cc1nc(-c2ccc(C(F)(F)F)cc2)sc1C(OCc1ccc(-c2noc(=O)[nH]2)cc1)C(F)(F)C1CC1 (racemic) [Example 32, 3-(4-{2-Cyclopropyl-2,2-difluoro-1-[4-methyl-2-(4-trifluoromethyl-phenyl)-thiazol-5-yl]-ethoxymethyl}-phenyl)-4H-[1,2,4]oxadiazol-5-one]",> 33
7,"Cc1nc(-c2ccc(C(F)(F)F)cc2)sc1C(OCc1ccc(-c2noc(=O)[nH]2)c(F)c1)C(F)(F)F (racemic) [Example 22, 3-(2-Fluoro-4-{2,2,2-trifluoro-1-[4-methyl-2-(4-trifluoromethyl-phenyl)-thiazol-5-yl]-ethoxymethyl}-phenyl)-4H-[1,2,4]oxadiazol-5-one]",2.64
8,"CCC(Oc1ccc(-c2noc(=O)[nH]2)c(Cl)c1)c1sc(-c2ccc(C(F)(F)F)cc2)nc1C (racemic) [Example 4, 3-(2-Chloro-4-{1-[4-methyl-2-(4-trifluoromethyl-phenyl)-thiazol-5-yl]-propoxy}-phenyl)-4H-[1,2,4]oxadiazol-5-one]",0.012
9,"Cc1nc(-c2ccc(C(F)(F)F)cc2)sc1C(OCc1ccc(-c2noc(=O)[nH]2)c2cccnc12)C(F)(F)F (racemic) [Example 25, 3-(8-{2,2,2-Trifluoro-1-[4-methyl-2-(4-trifluoromethyl-phenyl)-thiazol-5-yl]-ethoxymethyl}-quinolin-5-yl)-4H-[1,2,4]oxadiazol-5-one]",0.544
10,"Cc1nc(-c2ccc(C(F)(F)F)cc2)sc1C(OCc1ccc(-c2noc(=O)[nH]2)c(Cl)n1)C(F)(F)F (racemic) [Example 27, 3-(2-Chloro-6-{2,2,2-trifluoro-1-[4-methyl-2-(4-trifluoromethyl-phenyl)-thiazol-5-yl]-ethoxymethyl}-pyridin-3-yl)-4H-[1,2,4]oxadiazol-5-one]",1.21

# Further lines, results first:
row,EC50 [µM],Compound
1,1.07,"CCCCC(Cc1ccc(-c2noc(=O)[nH]2)c(F)c1)c1sc(-c2ccc(C(F)(F)F)cc2)nc1C (racemic) [Example 34, 3-(2-Fluoro-4-{2-[4-methyl-2-(4-trifluoromethyl-phenyl)-thiazol-5-yl]-hexyl}-phenyl)-4H-[1,2,4]oxadiazol-5-one]"
2,> 33,"CCC(Oc1ccc(-c2noc(=O)[nH]2)c(OC)c1)c1sc(-c2ccc(C(F)(F)F)cc2)nc1CN1CCC(C(F)(F)F)CC1 (racemic) [Example 42, 3-(2-Methoxy-4-{1-[2-(4-trifluoromethyl-phenyl)-4-(4-trifluoromethyl-piperidin-1-ylmethyl)-thiazol-5-yl]-propoxy}-phenyl)-4H-1,2,4-oxadiazol-5-one]"
3,0.223,"CCC(Oc1ccc(-c2noc(=O)[nH]2)c(OC(F)F)c1)c1sc(-c2ccc(C(F)(F)F)cc2)nc1C (racemic) [Example 37, 3-(2-Difluoromethoxy-4-{1-[4-methyl-2-(4-trifluoromethyl-phenyl)-thiazol-5-yl]-propoxy}-phenyl)-4H-1,2,4-oxadiazol-5-one]"
4,0.269,"CCC(Oc1ccc(-c2noc(=O)[nH]2)c(F)c1)c1sc(-c2ccc(C(F)(F)F)cc2)nc1C (racemic) [Example 35, 3-(2-Fluoro-4-{1-[4-methyl-2-(4-trifluoromethyl-phenyl)-thiazol-5-yl]-propoxy}-phenyl)-4H-1,2,4-oxadiazol-5-one]"
5,0.087,"CCC(Oc1ccc(-c2noc(=O)[nH]2)c(OCC(F)(F)F)c1)c1sc(-c2ccc(C(F)(F)F)cc2)nc1C (racemic) [Example 48, 3-[4-{1-[4-Methyl-2-(4-trifluoromethyl-phenyl)-thiazol-5-yl]-propoxy}-2-(2,2,2-trifluoro-ethoxy)-phenyl]-4H-1,2,4-oxadiazol-5-one]"
